# Laboratory results published in ChEMBL document CHEMBL5303304, “EUbOPEN Chemogenomics Library - IncuCyte” (2023).
# Experiments:
# Assay type in all cases: toxicity, cell-based
# HEK-293T = test: Incucyte cell viability with HEK293T; conditions: human, 10 µM, compound concentration 10 uM
# Fibroblast = test: Incucyte cell viability with human fibroblast; conditions: 10 µM, compound concentration 10 uM
# U2OS = test: Incucyte cell viability with U2OS; conditions: human, 10 µM, compound concentration 10 uM
# Also: unitless GR value; below 1 slowed growth and below 0 cell loss.
Compound,"Growth Rate (HEK-293T; 6 h, replicate number 1)","Growth Rate (HEK-293T; 6 h, replicate number 2)","Growth Rate (HEK-293T; 12 h, replicate number 2)","Growth Rate (HEK-293T; 18 h, replicate number 1)","Growth Rate (HEK-293T; 18 h, replicate number 2)","Growth Rate (HEK-293T; 24 h, replicate number 2)","Growth Rate (Fibroblast; 6 h, replicate number 2)","Growth Rate (Fibroblast; 12 h, replicate number 1)","Growth Rate (Fibroblast; 12 h, replicate number 2)","Growth Rate (Fibroblast; 18 h, replicate number 1)","Growth Rate (Fibroblast; 24 h, replicate number 1)","Growth Rate (U2OS; 6 h, replicate number 1)","Growth Rate (U2OS; 12 h, replicate number 1)","Growth Rate (U2OS; 12 h, replicate number 2)","Growth Rate (U2OS; 18 h, replicate number 1)","Growth Rate (U2OS; 24 h, replicate number 1)","Growth Rate (Fibroblast; 6 h, replicate number 1)","Growth Rate (Fibroblast; 18 h, replicate number 2)","Growth Rate (Fibroblast; 24 h, replicate number 2)","Growth Rate (U2OS; 0 h, replicate number 1)",other results
CCOCCn1cc(C(=O)Nc2ccc(-n3nc(-c4cccnc4)cc3C(F)(F)F)cn2)ccc1=O [BI 1935],0.1,-0.06,0.27,0.41,0.43,0.51,0.1,0.59,0.65,0.83,0.78,0.75,0.52,0.89,0.7,0.66,–,–,–,–,"Growth Rate (HEK-293T; 12 h, replicate number 1): 0.36; Growth Rate (HEK-293T; 24 h, replicate number 1): 0.48; Growth Rate (Fibroblast; 0 h, replicate number 2): -0.02"
CCc1cnn2c(NCc3ccc[n+]([O-])c3)cc(N3CCCCC3CCO)nc12 (stereo not drawn),-0.39,-0.72,-0.66,-0.2,-0.53,-0.41,0,0.25,-0.13,0.16,0.25,0.19,-0.08,0.11,-0.15,-0.23,0.11,-0.04,-0.14,-0.62,"Growth Rate (HEK-293T; 0 h, replicate number 1): -0.01; Growth Rate (HEK-293T; 12 h, replicate number 1): -0.26; Growth Rate (HEK-293T; 24 h, replicate number 1): -0.14; Growth Rate (Fibroblast; 0 h, replicate number 1): -0.96; Growth Rate (Fibroblast; 0 h, replicate number 2): 0.67; Growth Rate (U2OS; 0 h, replicate number 2): 0.91; Growth Rate (U2OS; 6 h, replicate number 2): 0.07; Growth Rate (U2OS; 18 h, replicate number 2): -0.08"
Cc1ncsc1-c1ccc(CNC(=O)[C@@H]2C[C@@H](O)CN2C(=O)[C@@H](NC(=O)CCCCNC(=O)c2ccc(-c3ccc(N4CCN(C)CC4)c(NC(=O)c4c[nH]c(=O)cc4C(F)(F)F)c3)cc2)C(C)(C)C)cc1,–,0.8,–,–,0.86,0.72,–,0.65,0.74,0.33,0.46,0.86,–,0.84,0.96,0.61,0.29,0.86,–,0.71,"Growth Rate (HEK-293T; 0 h, replicate number 1): -0.12; Growth Rate (Fibroblast; 0 h, replicate number 1): 0.97; Growth Rate (Fibroblast; 0 h, replicate number 2): 0.64; Growth Rate (U2OS; 6 h, replicate number 2): 0.89; Growth Rate (U2OS; 18 h, replicate number 2): 0.79; Growth Rate (U2OS; 24 h, replicate number 2): 0.71"
CCn1ccc(Nc2ncc3c(n2)-c2c(nn(C)c2-c2ccc(-c4cnn(C)c4)cc2Cl)CC3)n1,-0.49,-0.71,-0.54,-0.28,-0.43,-0.33,–,0.87,0.65,0.32,0.46,–,–,0.22,0.27,0.21,0.64,0.5,0.19,-1,"Growth Rate (HEK-293T; 12 h, replicate number 1): -0.39; Growth Rate (HEK-293T; 24 h, replicate number 1): -0.24; Growth Rate (Fibroblast; 0 h, replicate number 1): -1; Growth Rate (U2OS; 6 h, replicate number 2): 0.57; Growth Rate (U2OS; 18 h, replicate number 2): 0.13; Growth Rate (U2OS; 24 h, replicate number 2): -0.03"
COCCOCn1c(S(C)(=O)=O)nc2c1c(=O)n(C)c(=O)n2C,–,–,–,0.74,0.92,0.9,-0.97,0,0.03,0.05,0.45,0.11,0.55,–,0.93,0.76,-0.48,0.24,0.7,0.81,"Growth Rate (HEK-293T; 0 h, replicate number 1): 0.35; Growth Rate (HEK-293T; 0 h, replicate number 2): 0.7; Growth Rate (HEK-293T; 24 h, replicate number 1): 0.86; Growth Rate (Fibroblast; 0 h, replicate number 1): -1"
CC(C)(C[C@H]1CN(S(=O)(=O)c2cccc(C(F)(F)F)c2)c2cc(-c3cc(F)cc(OC(F)F)c3)ccc2O1)C(=O)O [CINTIRORGON],0.88,0.81,0.88,–,0.9,–,0.8,0.59,0.54,0.49,0.29,–,0.81,–,0.78,–,-0.68,0.81,0.69,0.78,"Growth Rate (HEK-293T; 0 h, replicate number 1): 1; Growth Rate (HEK-293T; 0 h, replicate number 2): -0.41; Growth Rate (Fibroblast; 0 h, replicate number 2): 0.71"
COc1ccccc1C(=O)Nc1cccc(NC(=O)c2cccc(C)c2)c1,–,0.58,0.91,–,–,–,-1,–,0.94,0.17,–,0.17,0.78,0.75,0.83,0.88,0.45,0.98,0.85,–,"Growth Rate (U2OS; 6 h, replicate number 2): 0.68; Growth Rate (U2OS; 18 h, replicate number 2): 0.84"
